In series [1] the test system is influenza A virus A/PR/8/34 (H1N1). Description: Influenza virus cytopathic effect (CPE) assay, A/PR/8/34 (H1N1). It counts as cell-based. Particulars: MDCK cells, 5 days, CCK8, read-out: EC50, inhibitory activity against influenza A virus A/PR/8/34 (H1N1). (Damage to the host cells serves as the signal in cytopathic effect assays.)
The format of series [2] is in vivo, cynomolgus monkeys. The arrangement: Tmax: unit not given here. The following applies: Monkey, PO, 1 mpk of 8B; concentration of 7B detected. How it is done:
(§1) Experimental objectives: To evaluate the druggability of the compounds by measuring pharmacokinetic properties in different animal species.
(§2) Experimental materials: Sprague-Dawley strain rats, Beagle dogs, cynomolgus monkeys.
(§3) The animal pharmacokinetic properties of the compound after intravenous injection and oral administration were tested by standard protocols, in which the candidate compound was prepared as a clear solution (intravenous injection) or as a homogeneous suspension (oral administration), and administered as a single dose to the animals. The vehicles for intravenous injection and oral administration are dimethyl sulfoxide and polyethylene glycol (15)-hydroxystearate aqueous solution in certain proportions. Whole blood samples were collected within 24 hours, centrifuged at 3200 g for 10 minutes, and the supernatant was separated to obtain plasma samples. Quantitative analysis of plasma concentrations was performed by LC-MS/MS analysis method, and pharmacokinetic parameters such as peak concentration, peak time, clearance rate, half-life, and area under the drug-time curve were calculated.

Series [3] has as its system influenza A virus strain A/PR8/34. Description: Drug efficacy assay in mice, treatment model of influenza A. It counts as in vivo, mice (BALB/c). The following applies: 30 mpk BID intragastric, day 2 to day 8.
The format of series [4] is in vivo. The following applies: Mouse, PO, 10 mpk of 8B; concentration of 7B detected. The protocol:
as §1, §2, §3

Series [5] is classed as in vivo, Beagle dogs. Particulars: Dog, PO, 1 mpk of 8B; concentration of 7B detected. How it is done:
as §1, §2, §3

Where two headings read alike, the source gives them in different places.

In the case of `O=C1c2c(O)c(=O)ccn2N2C(CCOc3cc(F)c(F)cc3[C@H]2c2ccccc2)N1C1CCC1` (stereo partly shown) [Compound 2A], the EC50 in series [1] (Influenza A virus, 120 h) was 13 nM.

As for `CN1C(=O)c2c(O)c(=O)ccn2N2C1CCOc1cc(F)c(F)cc1[C@H]2c1ccccc1` (stereo partly shown) [Compound 1A], the EC50 in series [1] (Influenza A virus, 120 h) was determined as 22 nM.

Regarding `CC(C)N1C(=O)c2c(O)c(=O)ccn2N2C1CCOc1ccccc1[C@H]2c1ccccc1` (stereo partly shown) [Compound 4A], the EC50 in series [1] (Influenza A virus, 120 h) worked out at 74 nM.

Turning to `COC(=O)OCOc1c2n(ccc1=O)N1[C@H](c3ccccc3)c3cc(F)c(F)cc3OCC[C@H]1N(C)C2=O` [Compound 8B], the figures for the AUC in series [2], in series [4] and in series [5] were 0.785 µM·h, 0.93 µM·h and 0.724 µM·h, respectively. In addition, the results for the Cmax in series [2], in series [4] and in series [5] were 163 nM, 309 nM and 171 nM, respectively. Moreover, the T1/2 in series [2] is reported as 3.6 h; in series [4], 1.3 h; in series [5], 4.4 h. Also, the Tmax is given as 3 in series [2], 1.2 h in series [4] and 0.75 h in series [5]. The “Change in body weight (Percentage of starting body weight)” value in series [3] (Day 3) is reported as −6.6 ± 1.1 Percentage of starting body weight; in series [3] (Day 4), −9.3 ± 0.8 Percentage of starting body weight; in series [3] (Day 5), −8.9 ± 2.2 Percentage of starting body weight; in series [3] (Day 6), −9.4 ± 1.9 Percentage of starting body weight; in series [3] (Day 7) it was −7.7 ± 1.4 Percentage of starting body weight; in series [3] (Day 8), −0.9 ± 0.8 Percentage of starting body weight. Besides, the “Change in body weight (Percentage of starting body weight)” value in series [3] (Day 9) is reported as −0.5 ± 1.1 Percentage of starting body weight; in series [3] (Day 10), 0.5 ± 0.6 Percentage of starting body weight; in series [3] (Day 11), 2.5 ± 0.6 Percentage of starting body weight; in series [3] (Day 12) it was 2.9 ± 1.0 Percentage of starting body weight; in series [3] (Day 13) it was 2.4 ± 1.3 Percentage of starting body weight; in series [3] (Day 14) it was 2.7 ± 1.4 Percentage of starting body weight. Further, the Survival rate in series [3] (Day 3), in series [3] (Day 4), in series [3] (Day 5), in series [3] (Day 6), in series [3] (Day 7) and in series [3] (Day 8) was 100% in each case. The Survival rate in series [3] (Day 9), in series [3] (Day 10), in series [3] (Day 11), in series [3] (Day 12), in series [3] (Day 13) and in series [3] (Day 14) was 100% in each case.

Consider `CN1C(=O)c2c(O)c(=O)ccn2N2C1CCOc1cc(F)c(F)cc1[C@H]2c1ccc(F)cc1` (stereo partly shown) [Compound 9A], for which the EC50 in series [1] (Influenza A virus, 120 h) was determined as 34 nM.

`CN1C(=O)c2c(O)c(=O)ccn2N2[C@H](c3ccccc3)c3ccc(F)c(F)c3OCC[C@@H]12` [Compound 20A]: in series [1] (Influenza A virus, 120 h), the EC50 worked out at 50 nM.

In the case of `CN1C(=O)c2c(O)c(=O)ccn2N2[C@H](c3ccccc3Br)c3cc(F)c(F)cc3OCC[C@@H]12` [Compound 18A], in series [1] (Influenza A virus, 120 h), the EC50 was determined as 11 nM.

Consider `O=C1c2c(O)c(=O)ccn2N2[C@H](c3ccccc3)c3ccccc3OCC[C@H]2N1C1CCC1` [Compound 3A], for which the EC50 in series [1] turned out to be 37 nM.

Values taken from patent US12516070B2, “Fused ring derivatives and use thereof in pharmacy” (priority 2020, dated 2026).
